In the assay the target is C_A84I-SQR (SDHC_A84I), IPO323_Flu21 mitochondria (Zymoseptoria tritici, UniProt F9X9V6+F9XH52+O42772, A84I). The assay is described as follows: Succinate-quinone (SQR) SDHI sensitivity assay on purified mitochondria, IPO323_Flu21. The format is biochemical. As to conditions: mitochondria of UV mutant IPO323_Flu21; mean of three ± SD. Here is the method: Succinate-ubiquinone oxidoreductase (SQR) inhibition assays were performed on mitochondrial extracts from a panel of strains that were (i) either carrying a unique C-subunit encoding gene (ZtSDHC1, ZtSDHC1_A84I or Zt-SDHC3), or (ii) carrying two C-subunit encoding genes ZtSDHC1 and ZtSDHC3 (Table 1).
Biomass production, mitochondrial extraction and purification were performed as described in [14]. Succinate: ubiquinone/DCPIP sensitivity tests were performed as described in [14] with minor modification. The different mitochondrial suspensions were adjusted to similar initial velocity (1 OD595nm hour^-1) and inhibitor concentrations ranged between 0.047nM and 50μM with uniform 4x dilution steps (11 concentrations + DMSO control). Calculated absorbance slopes (OD/min) were used for IC50 calculations using GraphPad Prism 6.07 software non-linear curve fitting against log inhibitor concentrations.
`C[C@@H](Cc1ccc(Cl)cc1Cl)NC(=O)c1cn(C)nc1C(F)F` [Compound 2] yielded a half-inhibitory concentration (IC50) of 780 ± 157 nM.
Compound `CC(C)CC(C)c1sccc1NC(=O)c1cn(C)nc1C(F)(F)F` (stereo not drawn) [Penthiopyrad] came in with an IC50 of 4.6 ± 1.7 nM.
To `O=C(Nc1ccccc1-c1ccc(Cl)cc1)c1cccnc1Cl` [Boscalid] belongs 62 ± 19.2 nM; to `CON(C(=O)c1cn(C)nc1C(F)F)[C@@H](C)Cc1ccc(Cl)cc1Cl` [Compound 3], 28 ± 7.3 nM; to `Cc1cc(OC(C)C)ccc1C(=O)C(C)(C)NC(=O)c1sccc1C` [Isofetamid], 21400 ± 4550 nM.
To `O=C(NCCc1ncc(C(F)(F)F)cc1Cl)c1ccccc1C(F)(F)F` [Fluopyram] belongs 1440 ± 354 nM.
Consider `CON(C(=O)c1cn(C)nc1C(F)F)[C@@H](C)Cc1c(Cl)cc(Cl)cc1Cl` [Pydiflumetofen], for which the IC50 was found to be 2 ± 0.4 nM.
Regarding `Cn1cc(C(=O)NCCc2ccc(Cl)cc2Cl)c(C(F)F)n1` [Compound 1], the IC50 worked out at 2570 ± 239 nM.
Regarding `CC1=C(C(=O)Nc2ccccc2)SCCO1` [Carboxin], the IC50 is 1150 ± 153 nM.

As a reminder, the IC50 is the point on the concentration scale where inhibition reaches its midpoint. The low end stands for inhibition by little substance, the high end for a need for much substance.
